{"source": "patent US8759073B2", "about": "“Method for effectively controlling harmful organisms in large-scale culture of microalgae” (ENN Science & Technology Development Co., Ltd., priority 2009, dated 2014)", "key": {"ciliate": {"system": "ciliate", "assay": "Control of ciliate contamination (mixed contamination) in microalgae culture, microscope examination", "format": "cell-based", "source_text": "In an embodiment, the pH of the culture system is first raised by alkalis, followed by aeration of CO2 to saturation. When the harmful organisms are observed as being in control under a microscope (for example, these harmful organisms such as Oxyrrhis, Amoeba and ciliate cannot be observed under a microscope or the activity of the harmful organisms has been reduced), the pH value is then adjusted back to the optimal pH suitable for microalgae growth by sufficiently aerating air. In an embodiment, an interval of 1 hour exists between the step of raising pH of the culture system with an alkali and the step of aerating CO2 to saturation. In an embodiment, said alkali can be ammonia. In an embodiment, said alkali can be 1M NaOH. […] In an embodiment, the pH of the culture system is adjusted to 11.5-12.0, 11.0-11.8 or 8.0-11.0 with 1M NaOH or 1M ammonia. In an embodiment, the pH of the culture system is adjusted to 11.5-12.0, 11.0-11.8 or 8.0-11.0 and maintained for 1 hours, followed by aeration of CO2 to saturation for about 24 hours. In an embodiment, the pH of the culture system is adjusted to 11.5-12.0, 11.0-11.8 or 8.0-11.0 and maintained for 1 hours, followed by aeration of CO2 to saturation for about 23 hours.\nChlorella sp. […] Modified SM medium (see Table 2) was used. […] Then air was sufficiently aerated.\nChlorococcum sp. […] Modified BG11 medium (see Table 3) was used. […] Then air was sufficiently aerated. Eighteen hours later, Chlorococcum sp. could resume to grow.\nModified SM (see Table 2) was used. […] Then air was sufficiently aerated. Twenty-four hours later, the algae could resume to grow.\nThen air was sufficiently aerated. Eighteen hours later, Chlorococcum sp. could resume to grow.\nModified SM (see Table 2) was used. […] One hour later, CO2 was aerated to saturation for 23 hour continuously (about pH 5.8). […] Then air was sufficiently aerated. Twenty-four hours later, the algae could resume to grow."}, "Oxyrrhis": {"system": "Oxyrrhis", "assay": "Control of Oxyrrhis contamination in microalgae culture, microscope examination", "format": "cell-based, Oxyrrhis sp", "source_text": "If the contaminated alga liquid is identified as acid tolerant contamination, pH value is raised up with alkalis in the culture system of the microalgae and maintained for a period of time. The pH value cannot be higher than the maximal tolerable pH of the microalgae. […] In an embodiment, said alkali can be ammonia. In an embodiment, said alkali can be NaOH. In an embodiment, said alkali can be 1M NaOH. Depending on different pH requirements and different culture systems, alkalis with different concentrations can be used according to the agitation condition, as long as the transient pH is not too high to be harmful to microalgae, and dilution of the cell concentration in the culture system (caused by adding too much alkali solution) should also be avoided. […] In an embodiment, the pH of the culture system is adjusted to 11.5-12.0 with 1M NaOH or 1M ammonia. In an embodiment, the pH of the culture system is adjusted to 11.0-11.8 or 8.0-11.0 with 1M NaOH or 1M ammonia. In an embodiment, the pH of the culture system is adjusted to 8.0-11.0, 11.5-12.0 or 11.0-11.8 and maintained for 3 hours.\nMicroscope examination is always used as one of the bases for determining the growth status in the process of microalgae culture.\nChlorella sp. (purchased from FACHB collection, Wuhan Aquatic Research Institure, Chinses Academy of Sciences) was cultured in a 320 L bubbling reactor (manufactured by Longfang Jiangchuan plexiglass Co. Ltd., φ300 mm×2 m) out-of-doors under a sunlight film. The culture condition included: a temperature of about 25 °C, a humidity of 60%-80%, and an illumination of 8000-20000 lux. Modified SM (see Table 2) (pH 7.0-9.0 for the normal culture) was used. […] Then, CO2 was aerated to adjust pH to be 7.0-8.0.\nChlorella sp. (obtained from Jinan University) was cultured in a 320 L bubbling reactor (manufactured by Longfang Jiangchuan plexiglass Co. Ltd., φ300 mm×2 m) out-of-doors under a sunlight film (with a temperature of about 25 °C, a humidity of 60%-80%, and an illumination of 8000-20000 lux). Modified SM medium (see Table 2) was used. When Amoeba, Oxyrrhis and ciliate contaminations were observed is with an oil immersion lens (Nikon fluorescent invert microscope Ti series), pH was adjusted to 11.0-11.8 with 1M NaOH. […] Then, CO2 was aerated continuously to saturation (pH 5.6). […] Then air was sufficiently aerated.\nChlorococcum sp. (obtained from Qingdao Marine Institute) was cultured in a 60 L glass plate reactor (manufactured by Longfang Jiangchuan plexiglass Co. Ltd., OP=10 cm) under a sunlight film (with a temperature of about 25 °C, a humidity of 60%-80%, and an illumination of 8000-20000 lux) (pH 8.0-9.0 for the normal culture). Modified BG11 medium (see Table 3) was used. […] Then CO2 was aerated and pH was adjusted to 7.0-8.0.\nChlorococcum sp. (obtained from Qingdao Marine Institute) was cultured in a 60 L glass plate reactor (manufactured by Longfang Jiangchuan plexiglass Co. Ltd., OP=10 cm) under a sunlight film (with a temperature of about 25 °C, a humidity of 60%-80%, and an illumination of 8000-20000 lux) (pH 8.0-9.0 for the normal culture). Modified BG11 medium (see Table 3) was used. […] One hour later, CO2 was aerated to saturation (about pH 5.6) for 24 hour continuously. […] Then air was sufficiently aerated."}, "Dunaliella tertiolecta": {"system": "Dunaliella tertiolecta", "assay": "Growth of cultured algae after treatment, 120 L bubbling reactor", "format": "cell-based", "details": "Example 1; CO2 intermittently pH 6.0-6.5 for 2 days, salinity decreased by 1%", "source_text": "Salinity was reduced by 1% (e.g. from 9% to 8%) by way of dilution with water. Then air was sufficiently aerated."}, "diatom": {"system": "diatom", "assay": "Control of diatom contamination in culture of Chlorococcum sp., microscope examination", "format": "cell-based", "details": "Example 8", "source_text": "Chlorococcum sp. […] Modified BG11 medium (see Table 3) was used. […] Then air was sufficiently aerated."}, "[1]": {"details": "Example 4, after 1M NaOH pH 11.0-11.8 1 h, CO2 to saturation (pH 5.6) 24 hours"}, "[2]": {"details": "Example 7, after 1M NaOH pH 11.5-12.0 1 h, CO2 to saturation (about pH 5.6) 24 hour"}, "[3]": {"details": "Example 10, after 1M NaOH pH 11.5-12.0 1 h, CO2 to saturation (about pH 5.8) 23 hour"}, "[4]": {"details": "Example 12, after 1M ammonia pH 9.0 1 h, CO2 to saturation (pH 5.6) 24 hours"}, "[5]": {"details": "Example 14, after 1M ammonia pH 9.0 1 h, CO2 to saturation (about pH 5.6) 24 hour"}, "[6]": {"details": "Example 15, after 1M ammonia pH 10.0 1 h, CO2 to saturation (about pH 5.8) 23 hour"}}, "note": "“Also recorded” adds a separate entry of the source.", "data": [{"smiles": "O=C=O", "note": "[CO2, carbon dioxide]", "values": [{"measurement": "ciliates, result of microscope examination", "setting": "ciliate; [1]", "value": "a few inactive and immotile ciliates"}, {"measurement": "ciliates, result of microscope examination", "setting": "ciliate; [2]", "value": "a few inactive and immotile ciliates"}, {"measurement": "ciliates, result of microscope examination", "setting": "ciliate; [3]", "value": "a few inactive and immotile ciliates"}, {"measurement": "ciliates, result of microscope examination", "setting": "ciliate; [4]", "value": "a few inactive and immotile ciliates"}, {"measurement": "ciliates, result of microscope examination", "setting": "ciliate; [5]", "value": "a few inactive and immotile ciliates"}, {"measurement": "ciliates, result of microscope examination", "setting": "ciliate; [6]", "value": "a few inactive and immotile ciliates"}, {"measurement": "Oxyrrhis, result of microscope examination", "setting": "Oxyrrhis; [1]", "value": "no Amoeba or Oxyrrhis"}, {"measurement": "Oxyrrhis, result of microscope examination", "setting": "Oxyrrhis; [2]", "value": "no Amoeba or Oxyrrhis"}, {"measurement": "Oxyrrhis, result of microscope examination", "setting": "Oxyrrhis; [3]", "value": "no Amoeba or Oxyrrhis"}, {"measurement": "Oxyrrhis, result of microscope examination", "setting": "Oxyrrhis; [4]", "value": "no Amoeba or Oxyrrhis"}, {"measurement": "Oxyrrhis, result of microscope examination", "setting": "Oxyrrhis; [5]", "value": "no Amoeba or Oxyrrhis"}, {"measurement": "Oxyrrhis, result of microscope examination", "setting": "Oxyrrhis; [6]", "value": "no Amoeba or Oxyrrhis"}, {"measurement": "impact on the growth of algae", "setting": "Dunaliella tertiolecta", "value": "not affected essentially; also recorded: little impact on the growth of algae"}, {"measurement": "diatom, result of microscope examination", "setting": "diatom; CO2 aerated continuously to saturation (about pH 5.6), thirty-six hours", "value": "some diatom lost intracellular pigment and only empty shells were left"}, {"measurement": "residual contaminating diatom after air aeration", "setting": "diatom; saturated CO2 36 hours, then air sufficiently aerated", "value": "reduced activity, grew slowly, and would not become dominant algae; also recorded: grew slowly"}]}]}
